Measured values from patent US20200214324A1, “Masking Bitter Flavors” (Board of Supervisors of Louisiana State University and …, priority 2009, published 2020).
Entries after “also recorded” stand apart in the source; their conditions may differ.

Columns and labels:
[1] = tasting of Hominex amino acid beverage with mogroside; assay type: in vivo; conditions: for off-flavors, chalkiness, pastiness and bitterness compared to the unmodified beverage / mogroside-associated off flavor: Hominex suspension
Experimental: For example, we added mogroside to a commercial amino acid beverage (Hominex™) at a rate of 200-1000 ppm, preferably 300-800 ppm. The Hominex™ suspension, which contains free amino acids, vitamins, minerals, and other nutrients, was prepared in accordance with the manufacturer's directions. Mogroside was then added to the dissolved medical food drink. The suspension was allowed to equilibrate for about one minute before tasting. Compared to the unmodified beverage, there was a marked reduction in the off-flavors, the chalkiness, the pastiness, and the bitterness. […] Unless additional flavors are also added, mogroside's own off-flavor can limit its use at higher concentrations. Conversely, at least for the samples we have tested to date, there may be no compelling reason to use mogroside at such higher levels anyway. Using mogroside in free amino acid-based foods can reduce or eliminate the bitter and unpleasant flavors, making them much more palatable, and enhancing patient compliance. Similar results are expected for improving the palatability of other medical foods.
(§1) Additional examples of the use of Mogroside V to alter the flavors of various consumables, and the experimental results obtained, are summarized in Table I: […]

[2] = tasting of cocoa powder with mogroside; assay type: in vivo; conditions: plain + 200 ppm mogroside (plain: bitter)
From the text: as §1

[3] = tasting of Ruby Red grapefruit with mogroside; assay type: in vivo
From the text: as §1

[4] = blind tasting of poached beef liver puree; assay type: in vivo
Experimental: In another experiment, mogroside was added to a beef liver puree, and the puree was poached to an internal temperature of 74° C. A control puree with no mogroside was identically cooked. Six individuals tasted the samples blind and could easily differentiate them.

[5] = tasting of coconut water with mogroside; assay type: in vivo; conditions: plain + 200 ppm mogroside (plain: bitter)
From the text: as §1

[6] = tasting of rum with mogroside; assay type: in vivo; conditions: plain + 200 ppm mogroside (plain: sharp and bitter)
From the text: as §1

[7] = vegetable oil with mogroside sprayed onto vegetables, tasting; assay type: in vivo; conditions: vegetable oil with 800 ppm mogroside sprayed on
From the text: Mogroside may also be applied to vegetables, for example as a spray or as a dipping solution. The bitter and astringent flavor notes of many vegetables are thereby reduced substantially, resulting in a smoother-tasting vegetable. Mogroside can also reduce beany notes and off-flavors in vegetables. We dispersed an aqueous or ethanol solution of mogroside into vegetable oil at a concentration of 800 ppm. The vegetable oil was then sprayed onto vegetables, either before or after cooking. […] The mogroside may be applied to vegetables from aerosols or misting solutions. It may also be used in microwaving, steaming, or boiling of vegetables, as well as other methods of cooking. […] Treating vegetables with mogroside can help to improve their acceptability.

[8] = tasting of turnip greens with mogroside in oil; assay type: in vivo; conditions: plain + 100 ppm mogroside in oil (plain: bitter)
From the text: as §1

[9] = tasting of aqueous potassium chloride solutions with or without mogroside; assay type: in vivo
From the text: When tasted by volunteers, the solution without mogroside was bitter, unpleasant, and generally considered undrinkable.
as §1

[10] = tasting of acai ice cream with glycerine and mogroside; assay type: in vivo
From the text: as §1

[11] = tasting of Robusta coffee with chicory with mogroside; assay type: in vivo; conditions: 2 g/250 g water, plain + 200 ppm mogroside
From the text: as §1

[12] = tasting of vodka with mogroside; assay type: in vivo; conditions: plain + 200 ppm mogroside (plain: sharp bite)
From the text: as §1

[13] = tasting of glycerine-water mixtures with mogroside; assay type: in vivo
From the text: Glycerine causes an astringent or biting taste in the back of the mouth when added to foods at levels over a few percent by weight. […] Glycerine may then be used as a humectant in intermediate-moisture human and pet foods. Adding a preferred concentration of about 200 ppm mogroside reduces or even eliminates the glycerine “bite.” Foods such as beans, pasta, rice, and bulgur can be pre-cooked in aqueous solutions of glycerine (˜2 to ˜30% by weight), containing ˜25 to ˜500 ppm mogroside. The products are then optionally dried to a water activity (aw) less than ˜0.7. The resulting materials can be rehydrated quickly with no bitter flavor.
as §1

[14] = solubility of mogroside in water versus oil; assay type: physicochemical
From the text: Addition of mogroside will also help improve the flavor of other organ meats and products containing organ meats. Other methods of cooking may also be used. The concentration or amount of mogroside may vary, depending on the method of cooking used. […] By contrast, cooking foods in water may require that higher concentrations of mogroside be used than when cooking in oil, because the mogroside is soluble in the cooking liquid. Higher concentrations of mogroside may be needed to promote osmosis or diffusion into the food. Temperature and cooking time will also have an effect on uptake of mogroside: In general, more mogroside will be taken up by food when the cooking temperature is higher, and also when the cooking time is longer.

[15] = difference and preference testing of a cocoa powder drink with 400 ppm mogroside; assay type: in vivo
From the text: as §1

[16] = tasting of pomegranate juice with mogroside; assay type: in vivo; conditions: plain + 200 ppm mogroside (plain: tannic)
From the text: as §1

[17] = cocoa powder drink + 400 ppm mogroside vs control, number of tasters

For mogroside, the flavor ([1]; 9.3 g Hominex/100 ml water + 200 ppm mogroside) was “much less so, but still; also recorded: bitter & slightly floury”, the flavor ([1]; 9.3 g Hominex/100 ml water + 300 ppm mogroside) was “drinkable” and the flavor ([1]; 9.3 g Hominex/100 ml water + 400 ppm mogroside) was “tasteless”. The flavor ([1]; 9.3 g Hominex/100 ml water + 500 ppm mogroside) was “tasteless”, the flavor ([1]; 9.3 g Hominex/100 ml water + 600 ppm mogroside) was “slight strange taste” and the flavor ([1]; 9.3 g Hominex/100 ml water + 700 ppm mogroside) was “hint of off-note”. The flavor ([1]; 9.3 g Hominex/100 ml water + 800 ppm mogroside) was “off-flavored”, the flavor ([1]; 10 g Hominex/230 g water + 200 ppm mogroside (without: bad aftertaste)) was “drinkable” and the “off-flavors, chalkiness, pastiness and bitterness compared to the unmodified beverage” value ([1]; 200 ppm mogroside) was “reduced”. For the same substance, the “off-flavors, chalkiness, pastiness and bitterness compared to the unmodified beverage” value ([1]; 300 ppm mogroside) was “essentially eliminated”, the mogroside-associated off flavor ([1]; 800 ppm mogroside) was “pronounced” and the mogroside-associated off flavor ([1]; around 600 ppm mogroside) was “began to develop”. For the same substance, the flavor [2] was “chocolate”, the flavor ([3]; plain + 100 ppm mogroside (plain: mild sour, mild sweet, very mild aftermath)) was “no difference from plain” and the flavor ([3]; plain + 200 ppm mogroside) was “mild sour, sweet, high”. For the same substance, the flavor ([3]; plain + 300 ppm mogroside) was “sweet, hint of sour,; also recorded: aftertaste of bitterness”, the flavor ([3]; plain + 400 ppm mogroside) was “very sweet, no sour,; also recorded: hint of bitterness” and the flavor ([3]; plain + 600 ppm mogroside) was “too sweet”. For the same substance, the “taste description by six blind tasters” value ([4]; 150-250 ppm, puree poached to 74° C., control livery, organy, bloody) was “slightly sweet, “bologna-like,” and “bland.””, the “level preferred by the majority of testers” value ([4]; in vivo) was 200 ppm and the preference of testers ([4]; samples with mogroside vs control puree, six individuals) was “All testers preferred the samples with mogroside”. The flavor [5] was “sweet”, the flavor [6] was “sweet” and the observed flavor change ([7]; artichoke hearts) was “reduction in bitterness and grassy flavor”. For the same substance, the observed flavor change ([7]; broccoli) was “reduction in sulfur and bitter notes”, the observed flavor change ([7]; carrots) was “more intense sweetness” and the observed flavor change ([7]; corn) was “sweeter corn flavor”. The observed flavor change ([7]; green beans) was “sweeter flavor and fewer beany notes”, the observed flavor change ([7]; lima beans) was “reduction in bitterness” and the observed flavor change ([7]; peas) was “shorter flavor profile”. For the same substance, the flavor [8] was “semi-sweet; no; also recorded: beaniness”, the perceived taste ([9]; 2% aqueous potassium chloride with 250 ppm mogroside, tasted by volunteers, without mogroside bitter, undrinkable) was “slightly salty, otherwise bland, and far more drinkable” and the flavor ([9]; KCl 2% + 250 ppm mogroside (2% alone: bitter)) was “salty”. The flavor ([9]; KCl 2.5% + 250 ppm mogroside) was “salty”, the flavor ([9]; KCl 3.0% + 250 ppm mogroside) was “slight bitterness” and the flavor and texture ([10]; + 5% Acai + 5% glycerin + 200 ppm mogroside) was “not too much flavor,; also recorded: slightly soft”. For the same substance, the flavor and texture ([10]; + 5% Acai + 5% glycerin + 300 ppm mogroside) was “soft, sweet”, the flavor and texture ([10]; + 5% Acai + 5% glycerin + 400 ppm mogroside) was “sweet, not much flavor,; also recorded: some berry, soft” and the flavor and texture ([10]; + 10% Acai + 5% glycerin + 200 ppm mogroside) was “berry notes, slightly soft”. For the same substance, the flavor and texture ([10]; + 10% Acai + 5% glycerin + 300 ppm mogroside) was “creamy”, the flavor and texture ([10]; + 10% Acai + 5% glycerin + 400 ppm mogroside) was “sweet, jammy, creamy,; also recorded: a bit too sweet” and the flavor and texture ([10]; + 10% Acai + 10% glycerin + 300 ppm mogroside) was “creamy”. For the same substance, the flavor and texture ([10]; + 10% Acai + 10% glycerin + 400 ppm mogroside) was “sweet, jammy, creamy,; also recorded: a bit too sweet”, the flavor and texture ([10]; plain + glycerine + 300 ppm mogroside (plain + glycerine: tannic, not sweet)) was “soft and creamy, sweet,; also recorded: berry, mild; best texture” and the flavor and texture ([10]; plain ice cream + 300 ppm mogroside (only)) was “plain, gummy”. The flavor [11] was “sweet coffee flavor”, the flavor [12] was “tasteless” and the flavor ([13]; 50% glycerine solution + mogroside (without: biting)) was “sweet”. For the same substance, the “effect on astringent or biting taste of glycerine” value ([13]; mogroside added to glycerine-water mixtures) was “greatly reduces or even eliminates the astringent or biting taste”, the “solubility in water compared with oil” value [14] was “much higher than that in oil” and the “Difference testing: No” value [15, 17] was 0. For the same substance, the “Difference testing: Yes” value [15, 17] was 6, the “Preference testing: Control” value ([15]; number preferring control without mogroside) was 1 and the “Preference testing: Test” value ([15]; number preferring test drink with 400 ppm mogroside) was 6. For the same substance, the flavor [16] was “sweet”.
